The record followed here is patent US5874597A, “Certain aminosterol compounds and pharmaceutical compositions including these compounds” (priority 1995, dated 1999).

Structures are written as SMILES. Entries after “also recorded” stand apart in the source; their conditions may differ.

Assay [1] deals with vitelline capillaries of chick embryo. Put plainly: chick embryo vitelline capillary regression assay. The following applies: Table II. The format is in vivo. Here is the method:
Using the chick embryo vitelline capillaries assay, compounds were tested for their ability to induce capillary regression. Each compound was applied in 0.1 ml of 15% Ficol 400 and PBS onto the embryo, and vascular regression was assessed after 60 minutes.
The 3-day chick embryo consists of an embryonic disc from which numerous vessels emerge and return, forming a "figure 8"-shaped structure--the embryo in the center with vascular loops extending outward over both poles. […] Following a lag period of around 15 minutes, the constriction of continuity between capillary and secondary vessels, generally on the "venous" side, was observed. Continued pulsatile blood flow progressed, resulting in a "swelling" of the blind tube, followed by a pinching off of the remaining connection and formation of an enclosed vascular sac resembling a "blood island." This process progressed until only the largest vessels remained intact.

Another assay deals with HM. Put plainly: HM MTT assay. The format is cell-based. The settings on record: Table II; read-out: HM MTT assay, Minimum Effective Concentration.
Assay [2] in a line: fasting blood glucose in mice. The settings on record: intravenous; vs. Group 1. The format is in vivo, mouse. Here is the method: To study the effect of steroid administrator or the NHE responsible for secretion of insulin, several of the aminosterols from shark liver were administered to fasting mice. Male CD-1 mice were assigned to one of four treatment groups. Whole blood glucose was tested using glucometer (Lifescan Glucometer II and One Touch test strips). Statistical analysis was via one-way analysis of variance (ANOVA) followed by subsequent Bonferonni's t-test.

Assay [3] deals with Xenopus tadpole (stage 59-60). Put plainly: Xenopus tadpole assay. It counts as in vivo, Xenopus laevis. The following applies: 10 μg/ml; about 1 hour.
In assay [4] the test system is Human ovarian carcinoma SKOV3. Description: growth inhibition of SKOV3. It counts as cell-based. The source says:
As set forth in Table 7 below, all malignant tumors evaluated in tissue culture, endothelial cells and vascular smooth muscle cells were sensitive to inhibition. Thus, compound 1436 has application in the control of growth factor dependent proliferation of many types of tissue.

The test system of the next assay is LLC. Put plainly: LLC MTT. The format is cell-based. The following applies: Lewis lung carcinoma; Table II; read-out: LLC MTT, Minimum Effective Concentration.

Take `CC(CCC(=O)O)[C@H]1CCC2C3C(CC[C@@]21C)[C@@]1(C)CC[C@@H](NCCCNCCCCN)CC1C[C@H]3O` (single isomer, unassigned): in assay [1], the “Chick embryo diss. assay, Minimum Effective Concentration” value stood at 0.01 µg. Further, in the assay with HM, the minimal effective concentration turned out to be 58.6 µg/mL.
With `CC(C)C(CO)(CC[C@@H](C)[C@H]1CC[C@H]2[C@@H]3[C@H](O)C[C@H]4C[C@@H](NCCCNCCCCN)CC[C@]4(C)[C@H]3CC[C@]12C)OS(=O)(=O)O` (single isomer, unassigned) [Compound 1437], the “fasting blood glucose effect” value in assay [2] was “caused hyperglycemia in mice”. In addition, the “tadpole response” value in assay [3] was “Epithelium covering the embryonic portions of the animal, such as the tail and antennae, began to slough off in sheets; also recorded: the larval skin was observed to shed off in a sheet”. Also, the “anticancer activity against SKOV3” value in assay [4] is “anticancer activity against the human ovarian carcinoma, SKOV3”.
Turning to `CC(C)CCC[C@@H](C)[C@H]1CC[C@H]2[C@@H]3CC[C@H]4C[C@@H](NCCCNCCCCNCCCN)CC[C@]4(C)[C@H]3CC[C@]12C` [drawing 82], the minimal effective concentration in the assay with LLC was 3 µg/mL.
